The values below come from patent US20080107619A1, “Carbohydrate based cellulase inhibitors as feeding stimulants in termites” (University of Florida Research Foundation, Inc., priority 2006, published 2008).

Molecules are shown by their SMILES. “Also recorded” adds a separate entry of the source.

Assay [1] has as its system R. flavipes worker termites. The assay can be described thus: Validative feeding bioassays with mono- and di-saccharides. Format: in vivo. To be noted: no-choice tests; concentrations tested 0.004-3.0% wt/wt; FIG. 12A.
Assay [2] has as its system Formosan Subterranean Termite β-glucosidases. To be noted: after feeding; Zhu et al.; cited from earlier work.
A further assay concerns R. flavipes. The note with it: choice tests; Waller et al.; cited from earlier work.
The next assay has as its system R. virginicus. The note with it: choice tests; Waller et al.; cited from earlier work.

As for `OC[C@H]1O[C@H](O[C@H]2[C@H](O)[C@@H](O)C(O)O[C@@H]2CO)[C@H](O)[C@@H](O)[C@@H]1O` (mixture of isomers) [maltose], the feeding stimulation entry in assay [1] is given as “generally a feeding deterrent; also recorded: no significant feeding stimulation”.
With `COc1cc(C=CC(=O)O)cc(OC)c1O` (stereo in doubt) [sinapinic acid], the inhibition entry in assay [2] is given as “completely ineffective”.
`O=C[C@H](O)[C@@H](O)[C@H](O[C@@H]1O[C@H](CO)[C@@H](O)[C@H](O)[C@H]1O)[C@H](O)CO` [cellobiose]: the feeding stimulation result in assay [1] is “no significant feeding stimulation”.
Turning to `OC[C@H]1O[C@@](CO)(O[C@H]2O[C@H](CO)[C@@H](O)[C@H](O)[C@H]2O)[C@@H](O)[C@@H]1O` [sucrose], the “consumption of treated paper substrates versus untreated controls” value with R. flavipes and with R. virginicus was “consumed more paper substrates” in each case.
With `O=C[C@H](O)[C@@H](O)[C@H](O)CO` [xylose], the “consumption of treated paper substrates versus untreated controls” value with R. flavipes and in the assay on R. virginicus was “consumed more paper substrates” in each case.
